Data published in patent US20220054658A1, “CONJUGATES” (Transfection Holdings Limited, priority 2018, published 2022).
Entries after “also recorded” stand apart in the source; their conditions may differ.

System: C. elegans
Experiment: Conjugate uptake in C. elegans (dye and praziquantel conjugates, fluorescence microscopy)
Type: in vivo, Caenorhabditis elegans
Settings: 50 μM; for viability of the nematodes: readings up to 72 h
Protocol: Nematode Growth Media (NGM) plates containing C. elegans were washed with 1.0-1.5 mL of standard M9 buffer and the washes were collected in an Eppendorf tube. The liquid containing the C. elegans was then spun for 1 min at room temperature at 10,000 rpm. The supernatant was removed, and fresh M9 buffer was added (500 μL) to generate a new stock solution of M9 buffer containing the C. elegans.
A C. elegans suspension (100 μL) was added a defined amount of M9 buffer (determined by the final desired concentration of compound to be tested: 399 μL in the case of the BODIPY tagged derivatives) contained within a separate Eppendorf tube. To this was then added a 25 mM solution of the compound in DMSO (1 μL). The resulting suspension was mixed using a vortex instrument.
The resulting mixture was incubated at room temperature for 2 to 4 h. in the dark (using aluminium foil to screen the tube, which was also stored in a cabinet).
Other samples were incubated overnight. Here, OP50 bacteria (3 μL) were added to the worms for feeding purposes, and the worms were kept in the dark at 20° C.
After the incubation, the tube contents were mixed gently by hand (typically by simple rotation of the tube), so as to achieve a homogenous suspension. A sample of the suspension (250 μL) was taken and mixed with M9 buffer (500 μL). The resulting suspension was placed in a centrifuge and spun at room temperature at 10,000 rpm for 1 min. The supernatant was removed, and the washing process was repeated twice more, each time using further quantities of fresh M9 buffer (500 μL each time). After the final washing sufficient supernatant was removed so as to leave a final sample volume of approximate 30 μL.
A 1.5% agarose solution in water was pre-warmed for 60 to 90 s. in a standard household style microwave (set to Power 4). Two drops of this solution was removed and placed on a glass slide. The glass slide was covered with a second glass slide. After 1 min., the slides were slid carefully apart, with the agarose remaining on one of the slides. Onto this slide was placed an aliquot of the final C. elegans solution (15 to 20 μL). To this was added a 20 mM sodium azide solution (5 μL) to inhibit nematode mobility. Vaseline was then placed around the agarose area before replacing the second slide. The slides were not pressed together.
The nematodes were then analysed using a Zeiss Axiskop 2 Plus microscope with a Hamamatsu Orca-ER (CA 742-95) camera. The images were resolved using OpenLab on a Mac operating system.
Compounds 1-11 were evaluated after 3 h and overnight incubation at a 50 μM concentration using the general uptake protocol described for C. elegans.
In order to compare the ability of a conjugate to improve the uptake of the drug praziquantel, two praziquantel derivatives were generated. Praziquantel was tagged with a BODIPY fluorescent tag (compound 12) and incorporated into a conjugate of the invention (compound 13). Compounds 12 and 13 were evaluated at a concentration of 50 μM using the C. elegans uptake protocol described above for compounds 1-11. Microscopic readings were taken after 3, 24 and 72 h.

Row | Compound | uptake: location of fluorescence in C. elegans (3 h incubation) | increase in uptake of compound 13 compared to compound 12 (20 h incubation) | uptake: location of fluorescence in C. elegans (24 h incubation) | uptake: location of fluorescence in C. elegans (72 h incubation) | viability of the nematodes | uptake compared to other compounds (3 h incubation) | uptake: location of fluorescence in C. elegans (20 h / overnight incubation)
1 | CC1(C)OCC(C)(C)[C@H](C(=O)N/C=C/C(=O)NCCc2cn(CCCC3=[N+]4C(=Cc5ccc(CCC(=O)N6CC(=O)N7CCc8ccccc8C7C6)n5[B-]4(F)F)C=C3)nn2)O1 (stereo partly drawn) [Compound 13, 5,5-Difluoro-7-(3-oxo-3-(4-oxo-3,4,6,7-tetrahydro-1H-pyrazino[2,1-a]isoquinolin-2(11bH)-yl)propyl)-3-(3-(4-(2-((E)-3-((R)-2,2,5,5-tetramethyl-1,3-dioxane-4-carboxamido)acrylamido)ethyl)-1H-1,2,3-triazol-1-yl)propyl)-5H-dipyrrolo[1,—2-c:2′,1′-f][1,3,2]diazaborinin-4-ium-5-uide] | strongly located in the pharynx, gut cells and gut lumen of the larval stages; also recorded: In the adult nematodes, compound 13 was strongly located in the pharynx, gut cells and gut lumen, whilst not visible in the embryos | threefold increase | strongly observed in the pharynx, gut cells and gut lumen of the larva | still strongly visible in the pharynx, gut lumen and get cells of the larvae; also recorded: In the case of the adult nematodes, compound 13 was strongly visible in the pharynx and in the gut lumen, as well as in the embryos and eggs | remained viable with no apparent detrimental effect | – | –
2 | CC1=CC(C)=[N+]2C1=Cc1ccc(CCC(=O)N3CC(=O)N4CCc5ccccc5C4C3)n1[B-]2(F)F (stereo not drawn) [Compound 12, 5,5-Difluoro-1,3-dimethyl-7-(3-oxo-3-(4-oxo-3,4,6,7-tetrahydro-1-pyrazino[2,1-a]isoquinolin 2(11 bH)-yl)propyl)-5H-dipyrrolo[1,2-c:2′,1′-f][1,3,2]diazaborinin-4-ium-5-uide, reference compound] | weakly up taken up into the pharynx and gut cells of the C. elegans larvae, as well as by adult nematodes mainly in the gut cells with lesser amount in the pharynx | – | the larva showed no increased uptake, with very minor amounts of compound 12 located in the pharynx and the gut cells | only the gut cells of the larvae showed the presence of small amounts of fluorescence; also recorded: In the case of the adult stages, fluorescence was visible in the gut lumen, gut cells and pharynx | remained viable with no apparent detrimental effect | – | –
3 | CC1=CC(C)=[N+]2C1=Cc1ccc(CCCn3cc(CCNC(=O)/C=C\NC(=O)[C@H](O)C(C)(C)CO)nn3)n1[B-]2(F)F [Compound 6, (Z)—N-((((3-[4,4-Difluoro-5,7-dimethyl-4-bora-3a,4a-diaza-s-indacene-3-yl]propyl)-1H-1,2,3-triazol-4-yl)ethylamino)-3-oxoprop-1-enyl)-2,4-dihydroxy-3,3-dimethylbutanamide] | visible in the gut cells and gut lumen of larval stages and in a lesser extent in the pharynx; also recorded: In adults, fluorescence was located in the pharynx, gut lumen and gut cells; also recorded: Fluorescence was not observed in the embryos | – | – | – | – | much lower degree than the enantiomeric analogue compound 8 | fluorescence was present in the gut lumen and gut cells, and to a smaller degree in the pharynx of the larvae; also recorded: Fluorescence was also present in the pharynx, gut cells and gut lumen of the adults as well as in the early stages of egg development; also recorded: Fluorescence was not observed in the embryos
